Oligonucleotides are written 5' to 3', each unit as a sugar letter and its base; * is a phosphorothioate linkage, no mark a phosphodiester; rarer units and linkages stand in square brackets, end groups in braces. Plain capitals give the bases only. [invdT] = inverted (3'-3') thymidine; d = 2'-deoxy (DNA); m = 2'-O-methyl
System: full length human vWF (SEQ ID NO 7)
Test: dot blot KD determination and extent of binding, full length human vWF;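 further: dot blot binding of aptamers to full length human vWF across a protein titration, incubated 30 minutes at room temperature in 1x DPBS with BSA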
Conditions: for % binding @ 100 nM vWF / Kd: Phase 1 modification; for % binding @ 100 nM vWF: extent of aptamer binding at 100 nM full length human vWF; for Kd: full length human vWF, 8 point protein titration, read-out: KD

| Substance | % binding @ 100 nM vWF [%] | Kd (dot blot) [nM] | binding to human vWF (in words, dot blot) |
| --- | --- | --- | --- |
| ARC1115: ARC1029 with PEG spacer replaced with a short oligonucleotide sequence, dTdTdC (DNA GGCGTGCAGTGCCTTCGGCCGTGCGGTGCCTCCGTCACGCC; unmodified DNA) | 36 | 2 | shown to bind |
| ARC1194: ARC1172 with one residue replaced by 2'-O methyl residue (DNA mGdGdCdGdTdGdCdAdGdTdGdCdCdTdTdCdGdGdCdCdGdTdGdCdGdGdTdGdCdCdTdCdCdGdTdCdAdCdGdCdC[invdT]; aptamer) | 46 | 3 |  |
| ARC1195: ARC1172 with one residue replaced by 2'-O methyl residue (DNA dGmGdCdGdTdGdCdAdGdTdGdCdCdTdTdCdGdGdCdCdGdTdGdCdGdGdTdGdCdCdTdCdCdGdTdCdAdCdGdCdC[invdT]; aptamer) | 55 | 1 |  |
| ARC1196: ARC1172 with one residue replaced by 2'-O methyl residue (DNA dGdGmCdGdTdGdCdAdGdTdGdCdCdTdTdCdGdGdCdCdGdTdGdCdGdGdTdGdCdCdTdCdCdGdTdCdAdCdGdCdC[invdT]; aptamer) | 46 | 2 |  |
| ARC1197: ARC1172 with one residue replaced by 2'-O methyl residue (DNA dGdGdCmGdTdGdCdAdGdTdGdCdCdTdTdCdGdGdCdCdGdTdGdCdGdGdTdGdCdCdTdCdCdGdTdCdAdCdGdCdC[invdT]; aptamer) | 46 | 2 |  |
| ARC1198: ARC1172 with one residue replaced by 2'-O methyl residue (DNA dGdGdCdGmUdGdCdAdGdTdGdCdCdTdTdCdGdGdCdCdGdTdGdCdGdGdTdGdCdCdTdCdCdGdTdCdAdCdGdCdC[invdT]; aptamer) | 50 | 0.9 |  |
| ARC1199: ARC1172 with one residue replaced by 2'-O methyl residue (DNA dGdGdCdGdTmGdCdAdGdTdGdCdCdTdTdCdGdGdCdCdGdTdGdCdGdGdTdGdCdCdTdCdCdGdTdCdAdCdGdCdC[invdT]; aptamer) | 28 | 19 |  |
| ARC1200: ARC1172 with one residue replaced by 2'-O methyl residue (DNA dGdGdCdGdTdGmCdAdGdTdGdCdCdTdTdCdGdGdCdCdGdTdGdCdGdGdTdGdCdCdTdCdCdGdTdCdAdCdGdCdC[invdT]; aptamer) | 25 | 5 |  |
| ARC1201: ARC1172 with one residue replaced by 2'-O methyl residue (DNA dGdGdCdGdTdGdCmAdGdTdGdCdCdTdTdCdGdGdCdCdGdTdGdCdGdGdTdGdCdCdTdCdCdGdTdCdAdCdGdCdC[invdT]; aptamer) | 6 | 0.9 |  |
| ARC1202: ARC1172 with one residue replaced by 2'-O methyl residue (DNA dGdGdCdGdTdGdCdAmGdTdGdCdCdTdTdCdGdGdCdCdGdTdGdCdGdGdTdGdCdCdTdCdCdGdTdCdAdCdGdCdC[invdT]; aptamer) | 56 | 0.4 |  |
| ARC1203: ARC1172 with one residue replaced by 2'-O methyl residue (DNA dGdGdCdGdTdGdCdAdGmUdGdCdCdTdTdCdGdGdCdCdGdTdGdCdGdGdTdGdCdCdTdCdCdGdTdCdAdCdGdCdC[invdT]; aptamer) | 40 | 3 |  |
| ARC1204: ARC1172 with one residue replaced by 2'-O methyl residue (DNA dGdGdCdGdTdGdCdAdGdTmGdCdCdTdTdCdGdGdCdCdGdTdGdCdGdGdTdGdCdCdTdCdCdGdTdCdAdCdGdCdC[invdT]; aptamer) | 45 | 2 |  |
| ARC1205: ARC1172 with one residue replaced by 2'-O methyl residue (DNA dGdGdCdGdTdGdCdAdGdTdGmCdCdTdTdCdGdGdCdCdGdTdGdCdGdGdTdGdCdCdTdCdCdGdTdCdAdCdGdCdC[invdT]; aptamer) | 50 | 1 |  |
| ARC1206: ARC1172 with one residue replaced by 2'-O methyl residue (DNA dGdGdCdGdTdGdCdAdGdTdGdCmCdTdTdCdGdGdCdCdGdTdGdCdGdGdTdGdCdCdTdCdCdGdTdCdAdCdGdCdC[invdT]; aptamer) | 50 | 2 |  |
| ARC1207: ARC1172 with one residue replaced by 2'-O methyl residue (DNA dGdGdCdGdTdGdCdAdGdTdGdCdCmUdTdCdGdGdCdCdGdTdGdCdGdGdTdGdCdCdTdCdCdGdTdCdAdCdGdCdC[invdT]; aptamer) | 54 | 2 |  |
| ARC1208: ARC1172 with one residue replaced by 2'-O methyl residue (DNA dGdGdCdGdTdGdCdAdGdTdGdCdCdTmUdCdGdGdCdCdGdTdGdCdGdGdTdGdCdCdTdCdCdGdTdCdAdCdGdCdC[invdT]; aptamer) | 45 | 2 |  |
| ARC1209: ARC1172 with one residue replaced by 2'-O methyl residue (DNA dGdGdCdGdTdGdCdAdGdTdGdCdCdTdTmCdGdGdCdCdGdTdGdCdGdGdTdGdCdCdTdCdCdGdTdCdAdCdGdCdC[invdT]; aptamer) | 44 | 2 |  |
| ARC1210: ARC1172 with one residue replaced by 2'-O methyl residue (DNA dGdGdCdGdTdGdCdAdGdTdGdCdCdTdTdCmGdGdCdCdGdTdGdCdGdGdTdGdCdCdTdCdCdGdTdCdAdCdGdCdC[invdT]; aptamer) | 49 | 2 |  |
| ARC1211: ARC1172 with one residue replaced by 2'-O methyl residue (DNA dGdGdCdGdTdGdCdAdGdTdGdCdCdTdTdCdGmGdCdCdGdTdGdCdGdGdTdGdCdCdTdCdCdGdTdCdAdCdGdCdC[invdT]; aptamer) | 47 | 2 |  |
| ARC1212: ARC1172 with one residue replaced by 2'-O methyl residue (DNA dGdGdCdGdTdGdCdAdGdTdGdCdCdTdTdCdGdGmCdCdGdTdGdCdGdGdTdGdCdCdTdCdCdGdTdCdAdCdGdCdC[invdT]; aptamer) | 49 | 2 |  |
| ARC1213: ARC1172 with one residue replaced by 2'-O methyl residue (DNA dGdGdCdGdTdGdCdAdGdTdGdCdCdTdTdCdGdGdCmCdGdTdGdCdGdGdTdGdCdCdTdCdCdGdTdCdAdCdGdCdC[invdT]; aptamer) | 43 | 6 |  |
| ARC1214: ARC1172 with one residue replaced by 2'-O methyl residue (DNA dGdGdCdGdTdGdCdAdGdTdGdCdCdTdTdCdGdGdCdCmGdTdGdCdGdGdTdGdCdCdTdCdCdGdTdCdAdCdGdCdC[invdT]; aptamer) | 39 | 3 |  |
| ARC1215: ARC1172 with one residue replaced by 2'-O methyl residue (DNA dGdGdCdGdTdGdCdAdGdTdGdCdCdTdTdCdGdGdCdCdGmUdGdCdGdGdTdGdCdCdTdCdCdGdTdCdAdCdGdCdC[invdT]; aptamer) | 2 | 3 |  |

Source: patent US7998940B2, “Aptamers to von Willebrand factor and their use as thrombotic disease therapeutics” (Archemix Corp., priority 2004, dated 2011)
